Laboratory results taken from patent publication US20180353460A1, “METHODS OF TREATING UROLOGICAL DISORDERS USING SARMs” (priority 2014, published 2018).
Like-named read-outs stand apart in the source and are kept apart here.

Key:
ovariectomized rat model = conditions: cited from earlier work
[1] = tested on: prostate, seminal vesicles and levator ani muscle; test: Androgenic and anabolic activity in castrated (ORX) male rats, daily oral gavage for fourteen days; assay type: in vivo, rat; conditions: castrated rats, comparators
Experimental: Male Sprague-Dawley rats weighing approximately 200 g were purchased from Harlan Bioproducts for Science (Indianapolis, Ind.). […] The anabolic and androgenic activity of compound of Formula VIII in intact animals was tested, as well as a dose response evaluation in acutely orchidectomized (ORX) animals. Regenerative effects of the compound of Formula VIII in chronically (9 days) ORX rats was similarly evaluated.
The test article for this study was weighed and dissolved in 10% DMSO (Fisher) diluted with PEG 300 (Acros Organics, NJ) for preparation of the appropriate dosage concentrations. […] Animals were randomly assigned to one of seven groups consisting of 4 to 5 animals per group. Control groups (intact and ORX) were administered vehicle daily. Compound of Formula VIII was administered via oral gavage at doses of 0.01, 0.03, 0.1, 0.3, 0.75, and 1 mg/day to both intact and ORX groups. Where appropriate, animals were castrated on day one of the study. Treatment with compound of Formula VIII began nine days post ORX and was administered daily via oral gavage for fourteen days.
(§1) In addition, ventral prostate, seminal vesicles, and levator ani muscle were removed, individually weighed, normalized to body weight, and expressed as a percentage of intact control. Student's T-test was used to compare individual dose groups to the intact control group. Significance was defined a priori as a P-value <0.05. Ventral prostate and seminal vesicle weights were evaluated as a measure of androgenic activity, whereas levator ani muscle weight was evaluated as a measure of anabolic activity. Blood was collected from the abdominal aorta, centrifuged, and sera were frozen at −80° C. prior to determination of serum hormone levels. Serum luteinizing hormone (LH) and follicle stimulating hormone (FSH) concentrations were determined.
Male Sprague-Dawley rats weighing approximately 200 g were purchased from Harlan Bioproducts for Science (Indianapolis, Ind.). […] Anabolic and androgenic activity of compound of Formula IX in intact animals was evaluated, and the dose response in acutely orchidectomized (ORX) animals was evaluated as well. Regenerative effects of compound of Formula IX in chronically (9 days) ORX rats were also assessed.
The compound was weighed and dissolved in 10% DMSO (Fisher) diluted with PEG 300 (Acros Organics, NJ) for preparation of the appropriate dosage concentrations. […] Intact and ORX animals were randomly assigned to one of seven groups consisting of 4 to 5 animals per group. Control groups (intact and ORX) were administered vehicle daily. Compound of Formula IX was administered via oral gavage at doses of 0.01, 0.03, 0.1, 0.3, 0.75, and 1 mg/day to both intact and ORX groups.
as §1, with “Castrated animals (on day one of the study) were randomly assigned to dose groups (4-5 animals/group) of 0.01, 0.03, 0.1, 0.3, 0.75, and 1 mg/day, for dose-response evaluation. Dosing began nine days post ORX and was administered daily via oral gavage for fourteen days. […] In” for “In”, “As a measure of androgenic activity, ventral” for “Ventral”, “evaluated,” for “evaluated as a measure of androgenic activity,”, “lutenizing” for “luteinizing”
Male Sprague-Dawley rats weighing approximately 200 g were purchased from Harlan Bioproducts for Science (Indianapolis, Ind.).

[2] = tested on: prostate, seminal vesicles and levator ani muscle; test: Androgenic and anabolic effects in intact, hemi-orchidectomized and castrated rats, subdermal osmotic pumps, 14 days; assay type: in vivo, rat; conditions: 0.5 mg/day, n = 5
Experimental: Male Sprague-Dawley rats were purchased from Harlan Biosciences (Indianapolis, Ind.). The animals were maintained on a 12 h cycle of light and dark with food and water available ad libitum. All animal studies were reviewed and approved. Immature male Sprague-Dawley rats weighing 187 to 214 g were randomly distributed into 9 groups of 5 animals. One day before the initiation of drug treatment, groups 4 through 6 and groups 7 through 9 received unilateral or bilateral orchidectomy, respectively, via a midline scrotal incision. […] All drugs given to animals were freshly prepared as solutions in polyethylene glycol 300 (PEG 300). Groups 4 and 7 received treatment with vehicle alone (i.e., PEG 300). […] Animals in groups 2, 5, and 8 received compound of Formula XII (0.5 mg/day) via implantation of subdermal osmotic pumps. After 14 days of drug treatment, rats were weighed, anesthetized, and sacrificed. The ventral prostates, seminal vesicles, and levator ani muscle were removed and weighed. Osmotic pumps were also removed from animals to check for correct pump operation. The weights of all organs were normalized to body weight, and analyzed for any statistically significant differences between groups using single-factor ANOVA with the alpha value set a priori at p<0.05. The weights of prostates and seminal vesicles were used as indices for evaluation of androgenic activity, and the levator ani muscle weight was used to evaluate the anabolic activity. Statistical analyses of parameters from complete blood count or serum chemical profiling, wherever applicable, were performed by single-factor ANOVA with the alpha value set a priori at p<0.05.

[3] = tested on: prostate, seminal vesicles and levator ani muscle; test: Androgenic and anabolic activity in castrated immature male rats, subcutaneous osmotic pumps, 14 days; assay type: in vivo, rat; conditions: castrated rats, 14 days, FIG. 2
Experimental: Immature male Sprague-Dawley rats, weighing 90 to 100 g, were purchased from Harlan Biosciences (Indianapolis, Ind.). The animals were maintained on a 12 hour light-dark cycle with food and water available ad libitum.
Rats were randomly distributed into treatment groups groups. One day prior to the start of drug treatment, animals were individually removed from the cage, weighed and anesthetized with an intraperitoneal dose of ketamine/xylazine (87/13 mg/kg; approximately 1 mL per kg). When appropriately anesthetized (i.e., no response to toe pinch), the animals' ears were marked for identification purposes. Animals were then placed on a sterile pad and their abdomen and scrotum washed with betadine and 70% alcohol. The testes were removed via a midline scrotal incision, with sterile suture being used to ligate supra-testicular tissue prior to surgical removal of each testis. The surgical wound site was closed with sterile stainless steel wound clips, and the site cleaned with betadine. The animals were allowed to recover on a sterile pad (until able to stand) and then returned to their cage.
Twenty-four hours later, animals were re-anesthetized with ketamine/xylazine, and an Alzet osmotic pump(s) (model 2002) was placed subcutaneouly in the scapular region. In this instance, the scapular region was shaved and cleaned (betadine and alcohol) and a small incision (1 cm) made using a sterile scalpel. The osmotic pump was inserted and the wound closed with a sterile stainless steel wound clip. Animals were allowed to recover and were returned to their cage. Osmotic pumps contained the appropriate treatment dissolved in polyethylene glycol 300 (PEG300). Osmotic pumps were filled with the appropriate solution one day prior to implantation. Animals were monitored daily for signs of acute toxicity to drug treatment (e.g., lethargy, rough coat).
After 14 days of drug treatment, rats were anesthetized with ketamine/xylazine. Animals were then sacrificed by exsanguinations under anesthesia. A blood sample was collected by venipuncture of the abdominal aorta, and submitted for complete blood cell analysis. A portion of the blood was placed in a separate tube, centrifuged at 12,000 g for 1 minute, and the plasma layer removed and frozen at −20° C. The ventral prostates, seminal vesicles, levator ani muscle, liver, kidneys, spleen, lungs, and heart were removed, cleared of extraneous tissue, weighed, and placed in vials containing 10% neutral buffered formalin. Preserved tissues were sent for histopathological analysis.
For data analysis, the weights of all organs were normalized to body weight, and analyzed for any statistical significant difference by single-factor ANOVA. The weights of prostate and seminal vesicle were used as indexes for evaluation of androgenic activity, and the levator ani muscle weight was used to evaluate the anabolic activity.

[4] = tested on: women with stress urinary incontinence; conditions: cited from earlier work; for median incontinence episode frequency decreased: placebo 41%
levator ani muscle [5] = test: Levator ani muscle weight in castrated rats treated subcutaneously for 14 days; assay type: in vivo, rat; conditions: castrated Sprague Dawley rats, subcutaneous, 3 mg/day
Description: At sacrifice, organs were weighed and expressed as raw organ weights. Values are expressed as average±S.D. Increased size and strength of pelvic floor muscles is one mechanism by which SARMs are believed to affect UI.
At sacrifice, organs were weighed and expressed as raw organ weights. Values are expressed as average±S.D.

levator ani muscle [6] = test: Hershberger assays of compounds H-1 to H-4; assay type: in vivo, rat; conditions: calculated in Win Non-Lin
Experimental: FIG. 3 depicts results of Hershberger assays of compounds of the invention as described in Example 17. AUC is area under the concentration-time curve.
Hershberger assays as described above for Formulas VIII-XIV were also performed on compounds H-1, H-2, H-3, & H-4, as reported in FIG. 3, along with AR binding data in some cases in Table 11. The reported Emax values were calculated in Win Non-Lin®.

[7] = compared with the vehicle control

C[C@H](Nc1ccc(C#N)c(Cl)c1Cl)C(C)(C)O [GSK2849466A]
increase of amplitude of urethral responses during sneezing (AURS) (ovariectomized rat model; [7]): 74%
increase of urethral baseline pressure (UBP) (ovariectomized rat model; [7]): 64%
rats with fluid leakage during sneezing (ovariectomized rat model; vehicle group 8/8): 1/8

CCC(=O)O[C@H]1CC[C@H]2[C@@H]3CCC4=CC(=O)CC[C@]4(C)[C@H]3CC[C@]12C [TP, testosterone propionate, reference compound]
maximal stimulation of levator ani muscle weight [1]: 104%
Levator Ani weight ([2]; Castrated rats): 87.27 ± 10.25 % of intact control
prostate weight ([2]; Castrated rats): 76.78 ± 10.43 % of intact control
seminal vesicle weight ([2]; Castrated rats): 63.48 ± 17.05 % of intact control
Levator Ani weight ([2]; Hemi-castrated rats): 98.63 ± 10.47 % of intact control
prostate weight ([2]; Hemi-castrated rats): 98.57 ± 7.98 % of intact control
seminal vesicle weight ([2]; Hemi-castrated rats): 114.19 ± 23.81 % of intact control
Levator Ani weight ([2]; Intact rats): 95.61 ± 9.34 % of intact control
prostate weight ([2]; Intact rats): 97.45 ± 10.82 % of intact control
seminal vesicle weight ([2]; Intact rats): 103.95 ± 13.23 % of intact control
weights of prostate, seminal vesicle and levator ani muscle [3]: increased the weights of prostate, seminal vesicle, and levator ani muscle in castrated rats in a dose-dependent manner

CNCC[C@H](Oc1cccc2ccccc12)c1cccs1 [duloxetine]
reduction in incontinence episode frequency ([4]; Dmochowski et al., placebo 27%): 50%
median incontinence episode frequency decreased ([4]; duloxetine 20 mg/day): 54%
median incontinence episode frequency decreased ([4]; duloxetine 40 mg/day): 59%
median incontinence episode frequency decreased ([4]; duloxetine 80 mg/day): 64%

C[C@]12CCC(=O)C[C@@H]1CC[C@@H]1[C@@H]2CC[C@]2(C)[C@@H](O)CC[C@@H]12 [DHT, dihydrotestosterone, reference compound]
levator ani muscle weight (levator ani muscle [5]): elicits hypertrophy of the levator ani muscle

C[C@](O)(COc1ccc(I)cc1)C(=O)Nc1ccc([N+](=O)[O-])c(C(F)(F)F)c1 [Compound H-4]
Emax in levator ani muscle (levator ani muscle [6]): 95 ± 7 % of intact control

C[C@](O)(COc1ccc(Cl)cc1)C(=O)Nc1ccc([N+](=O)[O-])c(C(F)(F)F)c1 [Compound H-2]
Emax in levator ani muscle (levator ani muscle [6]): 136 ± 9 % of intact control

C[C@](O)(COc1ccc(F)cc1)C(=O)Nc1ccc([N+](=O)[O-])c(C(F)(F)F)c1 [Compound H-1]
Emax in levator ani muscle (levator ani muscle [6]): 75 ± 4 % of intact control
